Experimental data taken from ChEMBL document CHEMBL2413072, “Synthesis and in vitro anticancer studies of novel C-2 arylidene congeners of lantadenes” (2013).

Key:
Assay type in all cases: functional
MDA-MB-231 [1] = assay: Growth inhibition of human MDA-MB-231 cells assessed as cell growth at 10^-7 M by sulforhodamine B assay; conditions: read-out: Activity
[2] = Growth inhibition of human HCC2998 cells by sulforhodamine B assay
MDA-MB-468 = assay: Growth inhibition of human MDA-MB-468 cells assessed as cell growth at 10^-8 M by sulforhodamine B assay; conditions: read-out: Activity
NCI-H226 [3] = assay: Growth inhibition of human NCI-H226 cells assessed as cell growth at 10^-6 M by sulforhodamine B assay; conditions: read-out: Activity
NCI-H23 = assay: Growth inhibition of human NCI-H23 cells assessed as cell growth at 10^-4 M by sulforhodamine B assay; conditions: read-out: Activity
SW-620 = assay: Growth inhibition of human SW620 cells assessed as cell growth at 10^-4 M by sulforhodamine B assay; conditions: read-out: Activity
SK-MEL-5 = assay: Growth inhibition of human SK-MEL-5 cells assessed as cell growth at 10^-6 M by sulforhodamine B assay; conditions: read-out: Activity
ACHN [4] = assay: Growth inhibition of human ACHN cells assessed as cell growth at 10^-8 M by sulforhodamine B assay; conditions: read-out: Activity
SF-539 [5] = assay: Growth inhibition of human SF539 cells assessed as cell growth at 10^-8 M by sulforhodamine B assay; conditions: read-out: Activity
NCI-H322M [6] = assay: Growth inhibition of human NCI-H322M cells assessed as cell growth at 10^-7 M by sulforhodamine B assay; conditions: read-out: Activity
[7] = Growth inhibition of human HCC2998 cells assessed as cell growth at 10^-6 M by sulforhodamine B assay; conditions: HCC 2998, read-out: Activity
MDA-MB-231 [8] = assay: Growth inhibition of human MDA-MB-231 cells assessed as cell growth at 10^-4 M by sulforhodamine B assay; conditions: read-out: Activity
A498 = assay: Growth inhibition of human A498 cells assessed as cell growth at 10^-7 M by sulforhodamine B assay; conditions: read-out: Activity
MCF7 = assay: Growth inhibition of human MCF7 cells assessed as cell growth at 10^-4 M by sulforhodamine B assay; conditions: read-out: Activity
RXF 393 = assay: Growth inhibition of human RXF393 cells by sulforhodamine B assay
SK-MEL-2 [9] = assay: Growth inhibition of human SK-MEL-2 cells assessed as cell growth at 10^-4 M by sulforhodamine B assay; conditions: read-out: Activity
SF-268 = assay: Growth inhibition of human SF268 cells by sulforhodamine B assay
ACHN [10] = assay: Growth inhibition of human ACHN cells by sulforhodamine B assay
COLO 205 = assay: Growth inhibition of human COLO205 cells assessed as cell growth at 10^-8 M by sulforhodamine B assay; conditions: read-out: Activity
CAKI-1 = assay: Growth inhibition of human CAKI-1 cells assessed as cell growth at 10^-7 M by sulforhodamine B assay; conditions: read-out: Activity
DU-145 = assay: Growth inhibition of human DU145 cells assessed as cell growth at 10^-4 M by sulforhodamine B assay; conditions: read-out: Activity
OVCAR-3 = assay: Growth inhibition of human OVCAR3 cells assessed as cell growth at 10^-6 M by sulforhodamine B assay; conditions: read-out: Activity
SF-539 [11] = assay: Growth inhibition of human SF539 cells by sulforhodamine B assay
SK-MEL-28 [12] = assay: Growth inhibition of human SK-MEL-28 cells assessed as cell growth at 10^-7 M by sulforhodamine B assay; conditions: read-out: Activity
NCI-H322M [13] = assay: Growth inhibition of human NCI-H322M cells assessed as cell growth at 10^-8 M by sulforhodamine B assay; conditions: read-out: Activity
SR = assay: Growth inhibition of human SR cells by sulforhodamine B assay
NCI-H226 [14] = assay: Growth inhibition of human NCI-H226 cells assessed as cell growth at 10^-7 M by sulforhodamine B assay; conditions: read-out: Activity
UO-31 = assay: Growth inhibition of human UO31 cells assessed as cell growth at 10^-6 M by sulforhodamine B assay; conditions: read-out: Activity
OVCAR-5 = assay: Growth inhibition of human OVCAR5 cells assessed as cell growth at 10^-4 M by sulforhodamine B assay; conditions: read-out: Activity
SN12C = assay: Growth inhibition of human SN12C cells by sulforhodamine B assay
SK-MEL-28 [15] = assay: Growth inhibition of human SK-MEL-28 cells by sulforhodamine B assay
A549 = assay: Growth inhibition of human A549/ATCC cells by sulforhodamine B assay
OVCAR-4 = assay: Growth inhibition of human OVCAR4 cells by sulforhodamine B assay
Malme-3M = assay: Growth inhibition of human MALME-3M cells by sulforhodamine B assay
SK-MEL-2 [16] = assay: Growth inhibition of human SK-MEL-2 cells assessed as cell growth at 10^-6 M by sulforhodamine B assay; conditions: read-out: Activity
HL-60(TB) = assay: Growth inhibition of human HL-60(TB) cells assessed as cell growth at 10^-7 M by sulforhodamine B assay; conditions: read-out: Activity
OVCAR-8 = assay: Growth inhibition of human OVCAR8 cells assessed as cell growth at 10^-6 M by sulforhodamine B assay; conditions: read-out: Activity
[17] = read-out: LC50 (the source's name)
[18] = read-out: pLC50 (the source's name) (converted)

C/C=C(/C)C(=O)O[C@@H]1CC(C)(C)C[C@H]2C3=CC[C@@H]4[C@@]5(C)CCC(=O)C(C)(C)[C@@H]5CC[C@@]4(C)[C@]3(C)CC[C@@]12C(=O)O [LANTADENE A]
growth at 0.1 µM (MDA-MB-231 [1]): 101%
GI50 ([2]; HCC 2998, read-out: GI50): 3.33 µM
CC50 ([2]; HCC 2998, read-out: LC50 (the source's name)): > 100 µM
TGI ([2]; HCC 2998, read-out: TGI): > 100 µM
GI50 ([2]; HCC 2998, read-out: pGI50 (converted)): 3.31 µM
CC50 ([2]; HCC 2998, read-out: pLC50 (the source's name) (converted)): > 100 µM
TGI ([2]; HCC 2998, read-out: pTGI (converted)): > 100 µM
growth at 0.01 µM (MDA-MB-468): 95%
growth at 1 µM (NCI-H226 [3]): 87%
growth at 100 µM (NCI-H23): 12%
growth at 100 µM (SW-620): 22%
growth at 1 µM (SK-MEL-5): 58%
growth at 0.01 µM (ACHN [4]): 110%
growth at 0.01 µM (SF-539 [5]): 102%
growth at 0.1 µM (NCI-H322M [6]): 97%
growth at 1 µM [7]: 98%
growth at 100 µM (MDA-MB-231 [8]): -26%
growth at 0.1 µM (A498): 86%
growth at 100 µM (MCF7): 15%
GI50 (RXF 393; read-out: GI50): 2.41 µM
CC50 (RXF 393; [17]): > 100 µM
TGI (RXF 393; read-out: TGI): 9.93 µM
GI50 (RXF 393; read-out: pGI50 (converted)): 2.4 µM
CC50 (RXF 393; [18]): > 100 µM
TGI (RXF 393; read-out: pTGI (converted)): 10 µM
growth at 100 µM (SK-MEL-2 [9]): -35%
GI50 (SF-268; read-out: GI50): 5.96 µM
LC50 (SF-268; read-out: LC50): > 100 µM
TGI (SF-268; read-out: TGI): > 100 µM
GI50 (SF-268; read-out: pGI50 (converted)): 6.03 µM
LC50 (SF-268; read-out: pLC50 (converted)): > 100 µM
TGI (SF-268; read-out: pTGI (converted)): > 100 µM
GI50 (ACHN [10]; read-out: GI50): 4.94 µM
CC50 (ACHN [10]; [17]): > 100 µM
TGI (ACHN [10]; read-out: TGI): > 100 µM
GI50 (ACHN [10]; read-out: pGI50 (converted)): 4.9 µM
CC50 (ACHN [10]; [18]): > 100 µM
TGI (ACHN [10]; read-out: pTGI (converted)): > 100 µM
growth at 0.01 µM (COLO 205): 106%
growth at 0.1 µM (CAKI-1): 94%
growth at 100 µM (DU-145): 29%
growth at 1 µM (OVCAR-3): 105%
GI50 (SF-539 [11]; read-out: GI50): 6.51 µM
CC50 (SF-539 [11]; [17]): > 100 µM
TGI (SF-539 [11]; read-out: TGI): > 100 µM
GI50 (SF-539 [11]; read-out: pGI50 (converted)): 6.46 µM
CC50 (SF-539 [11]; [18]): > 100 µM
TGI (SF-539 [11]; read-out: pTGI (converted)): > 100 µM
growth at 0.1 µM (SK-MEL-28 [12]): 95%
growth at 0.01 µM (NCI-H322M [13]): 99%
GI50 (SR; read-out: GI50): 3 µM
CC50 (SR; [17]): > 100 µM
TGI (SR; read-out: TGI): > 100 µM
GI50 (SR; read-out: pGI50 (converted)): 3.02 µM
CC50 (SR; [18]): > 100 µM
TGI (SR; read-out: pTGI (converted)): > 100 µM
growth at 0.1 µM (NCI-H226 [14]): 81%
growth at 1 µM (UO-31): 87%
growth at 100 µM (OVCAR-5): 42%
GI50 (SN12C; read-out: GI50): 3.47 µM
CC50 (SN12C; [17]): > 100 µM
TGI (SN12C; read-out: TGI): > 100 µM
GI50 (SN12C; read-out: pGI50 (converted)): 3.47 µM
CC50 (SN12C; [18]): > 100 µM
TGI (SN12C; read-out: pTGI (converted)): > 100 µM
GI50 (SK-MEL-28 [15]; read-out: GI50): 12.8 µM
CC50 (SK-MEL-28 [15]; [17]): > 100 µM
TGI (SK-MEL-28 [15]; read-out: TGI): > 100 µM
GI50 (SK-MEL-28 [15]; read-out: pGI50 (converted)): 12.9 µM
CC50 (SK-MEL-28 [15]; [18]): > 100 µM
TGI (SK-MEL-28 [15]; read-out: pTGI (converted)): > 100 µM
GI50 (A549; read-out: GI50): 2.84 µM
CC50 (A549; [17]): > 100 µM
TGI (A549; read-out: TGI): > 100 µM
GI50 (A549; read-out: pGI50 (converted)): 2.82 µM
CC50 (A549; [18]): > 100 µM
TGI (A549; read-out: pTGI (converted)): > 100 µM
GI50 (OVCAR-4; read-out: GI50): 5.64 µM
CC50 (OVCAR-4; [17]): > 100 µM
TGI (OVCAR-4; read-out: TGI): > 100 µM
GI50 (OVCAR-4; read-out: pGI50 (converted)): 5.62 µM
CC50 (OVCAR-4; [18]): > 100 µM
TGI (OVCAR-4; read-out: pTGI (converted)): > 100 µM
GI50 (Malme-3M; read-out: GI50): 7.91 µM
CC50 (Malme-3M; [17]): > 100 µM
TGI (Malme-3M; read-out: TGI): > 100 µM
GI50 (Malme-3M; read-out: pGI50 (converted)): 7.94 µM
CC50 (Malme-3M; [18]): > 100 µM
TGI (Malme-3M; read-out: pTGI (converted)): > 100 µM
growth at 1 µM (SK-MEL-2 [16]): 108%
growth at 0.1 µM (HL-60(TB)): 96%
growth at 1 µM (OVCAR-8): 95%
